In paper PMC1713233, “Implantation Serine Proteinases heterodimerize and are critical in hatching and implantation” (BMC Developmental Biology, 2006):
Counter-ions that a name gives are not always drawn. Like-named read-outs stand apart in the source and are kept apart here. Blank lines part the entries; values can stand above or below the compound they belong to. Residues, ends and D or L forms follow the SMILES beside them. *: point of attachment. pNA = O=[N+]([O-])c1ccc(N*)cc1; Bz = O=C(c1ccccc1)*

What was measured:
[1] = target: T1, ISP1-ISP2 enzyme complex (Mus musculus, UniProt Q924N9+Q99MS4); assay: Inhibition of proteolytic activity of ISP enzyme complex, chromogenic assay with BAPNA as substrate; assay type: biochemical; conditions: for Ki: from IC50 by Cheng and Prusoff equation, read-out: Dissociation Constant (Ki); for Influence on ISP activity: general trypsin inhibitors; for Affinity for ISP enzyme: Fig. 4B, compared to Benzamidine
T1 construct: The native ISP enzyme complex was purified from mouse uterine tissue homogenates; from tissue; host or cells: uterus of pregnant CD1 mice (4.5-6.5 dpc)
Method: Many general serine proteinase inhibitors were tested in order to identify suitable ISP inhibitors when BAPNA was used as a substrate. These included Benzamidine hydrochloride, 4-(Amidino-Phenyl)-Methane-Sulfonyl Fluoride (APMSF), L-1 Chloro-3- [4-tosyl-amido]-7-amino-2-heptanone. HCl (TLCK), Trypsin Soybean Inhibitor (TSI), Bis (5-amidino-2-benzimadozolyl) methane (BABIM), Gabexate mesylate, Nafamostat, and the kunitz family serpins Uterine Plasmin-Trypsin Inhibitor (UPTI) and Secretary Leukocyte proteinase inhibitor (SLPI).
Only inhibitors specific for trypsin-like serine proteinases were able to inhibit the ISPs (Fig. 4B and Additional file 2. Table 1). IC50 (concentration of an inhibitor capable of inhibiting the enzyme activity by 50%) values were obtained by plotting inhibition data, which were extrapolated into Cheng and Prusoff's equation to derive the dissociation constant (Ki).
(§1) Chromogenic assays were carried out using the p-Nitroanilide conjugated peptidic substrates. The reaction conditions used were: 4 mM BAPNA (substrate), in 25 mM Tris.Cl (pH 8.0) and 10 mM EDTA reaction buffer, in a total reaction volume of 0.5 mL. The reactions were carried out at room temperature in a glass cuvette (1 cm path length), and scanned at wavelength maxima of 405 nm using a spectrophotometer. 1 Unit of enzyme is defined as enzyme activity sufficient for the breakdown of 1 μM of substrate/ml/min. The affinity of ISP complex with various substrates was characterized by measuring enzyme activity at differing substrate concentrations and plotting enzyme activity [V] vs. substrate concentration [S]. The Km was calculated using the Michaelis Menton equation (Km = [S] at 1/2 Vmax).
IC50 values were derived by plotting enzyme activity (V) vs. inhibitor concentration [I]. Dissociation constants (Ki) values for different inhibitors were determined by using the Cheng and Prusoff equation (Ki = IC50/1 + [S]/Km).

[2] = test system: blastocysts; assay: In vitro embryo hatching; assay type: cell-based
Source text: In order to define a physiological role for the ISPs, the effect of inhibiting ISP activity upon embryo hatching, outgrowth (Fig. 6 and 7) and implantation (Table 1) was investigated. Blastocysts were first cultured in the presence or absence of anti-ISP mAbs or selected inhibitors. […] Similarly, the effect of varying concentrations of anti-ISP1 and anti-ISP2 mAbs was studied both individually and together (Fig. 7C, E and 7G).
(§2) Blastocysts were collected by flushing the uteri of day 3.5 post coetum dams with M2 (Sigma Aldrich and Co.) medium. For in vitro hatching experiments, blastocysts were cultured in micro drops of Knockout DMEM medium (Invitrogen) with serum replacement in a drop under mineral oil at 37°C and 5% CO2 [27]. For in vitro embryo outgrowth onto extracellular matrix, hatched blastocysts were cultured for an additional 48 h at 37°C and 5% CO2 in DMEM plus 5% (v/v) fetal bovine serum on […] Nunc tissue culture dishes coated with extracellular matrix derived from 10% Triton X-100 (v/v) treated mouse embryo fibroblasts. Inhibitors or anti-ISP mAbs were mixed into media at stated concentrations. For antibody inhibition experiments, anti-ISP hybridoma supernatants (or negative control supernatants) were mixed with embryo culture media at an appropriate concentration. For inhibitor experiments, negative controls contained the medium used to dispense Gabexate mesylate.

[3] = target: T1, ISP1-ISP2 enzyme complex; assay: Substrate affinity (Km) of synthetic chromogenic substrates for ISP enzyme complex; assay type: biochemical; conditions: Km = [S] at 1/2 Vmax
Method: To determine the substrate specificity of the ISP complex and to classify it into a subclass of the S1 family of serine proteinases, enzyme assays were carried out using different p-nitroanilide linked peptide (1–3 mer) substrates. These included chymotrypsin-like (Tyr/Phe at cleavage (P1) site), trypsin-like (Arg/Lys at P1 position), elastase-like (Ala at P1 position), and subtilisin-like (Leu at P1 position) substrates. In order to compare affinity of specific substrates and derive Michaelis Menton constant (Km) values, the kinetic curves were plotted (substrate conc. [S] vs. rate of reaction [v]).
as §1

[4] = test system: hatched blastocysts; assay: In vitro embryo outgrowth onto extracellular matrix; assay type: cell-based; conditions: for Embryo death: 48 hrs
Source text: Implantation was simulated in vitro by growth of the hatched blastocysts in culture plates coated with the extracellular matrix derived from mouse embryonic fibroblasts, which can be invaded by outgrowing embryos (Fig. 6C and 6D). The effect of Gabexate on blastocyst outgrowth is also incremental with increasing concentration of Gabexate (Fig. 7B). […] A similar result was not observed for individual or combined mAbs, possibly owing to the abundance of ISP enzyme that occurs within the uterine fluid.
as §2

[5] = test system: embryo implantation; assay: Effect on pregnancy after injection into the uterine lumen; assay type: in vivo, CD1 mice; conditions: for # pregnant / # embryos: 10 ul of 10 mM per uterine horn at 2.5 dpc, examined at 7.5 dpc; for Rate (%) of pregnancy: rate of pregnancy in Controls assumed as 100%
Method: CD1 mice were obtained at the age of 6–8 weeks from Charles River Canada (St. Constant, Quebec) and maintained in a standard laboratory animal facility with controlled temperature (20°C), humidity and light cycle (lights on between 0700 and 1900 hr). The maintenance and treatment of animals was in full compliance with the Standard laboratory animal care protocols approved by the University of Calgary Animal Care Committee. To obtain natural pregnancies, female mice were paired with adult males and checked daily for the presence of vaginal copulatory plugs, as an indication of mating. The day of plug detection is designated as day 0.5 post coetum. For collection of uteri and embryos, pregnant dams were sacrificed on a specific day by cervical dislocation.
Uterine horns were exposed surgically whereupon inhibitor or anti-ISP antibodies were injected into the uterine lumen using the minimum possible volume (10 μl fluid was injected per horn). Since Gabexate was dissolved in normal saline, the control mice were injected with normal saline solution.

[6] = test system: hatched blastocysts; assay: In vitro embryo outgrowth onto extracellular matrix; assay type: cell-based
[7] = 4 mM BAPNA substrate, 25 mM Tris.Cl pH 8.0, room temperature, read-out: IC50%
[8] = Expt 04, 0.1 mM, 6 embryos/drop, control 6
[9] = Expt 04, 0.25 mM, 6 embryos/drop, control 6
[10] = Expt 06, 0.01 mM, 5 embryos/drop, control 4
[11] = Expt 06, 0.05 mM, 5 embryos/drop, control 4
[12] = Expt 06, 0.1 mM, 5 embryos/drop, control 4
[13] = Expt 07, 0.1 mM, 5 embryos/drop, control 6 of 6
[14] = Expt 07, 0.5 mM, 6 embryos/drop, control 6

T1 sequence (Q924N9 27-274): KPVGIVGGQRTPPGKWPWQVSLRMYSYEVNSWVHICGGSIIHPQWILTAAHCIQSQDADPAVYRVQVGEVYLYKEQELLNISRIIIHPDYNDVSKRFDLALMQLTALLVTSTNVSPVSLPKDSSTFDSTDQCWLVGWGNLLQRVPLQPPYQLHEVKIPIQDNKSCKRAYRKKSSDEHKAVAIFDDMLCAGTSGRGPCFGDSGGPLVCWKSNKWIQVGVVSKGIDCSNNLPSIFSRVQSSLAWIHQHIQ
T1 sequence (Q99MS4 18-279): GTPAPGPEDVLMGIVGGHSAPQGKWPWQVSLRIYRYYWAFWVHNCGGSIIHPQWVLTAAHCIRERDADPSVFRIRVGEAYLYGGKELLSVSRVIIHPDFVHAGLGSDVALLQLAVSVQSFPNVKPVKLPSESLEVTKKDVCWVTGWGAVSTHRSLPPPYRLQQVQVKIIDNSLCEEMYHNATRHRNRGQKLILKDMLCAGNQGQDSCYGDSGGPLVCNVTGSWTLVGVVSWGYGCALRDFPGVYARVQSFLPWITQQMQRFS

Compound: N=C(N)c1ccc(CS(=O)(=O)F)cc1 [APMSF, 4-(Amidino-Phenyl)-Methane-Sulfonyl Fluoride]
IC50 [1, 7]: 19.5 mM
Ki ([1]; BAPNA substrate): 5.31 mM
Influence on ISP activity [1]: inhibitory influence

Compound: N=C(N)c1ccc2[nH]c(Cc3nc4cc(C(=N)N)ccc4[nH]3)nc2c1 [BABIM, Bis (5-amidino-2-benzimadozolyl) methane]
IC50 [1, 7]: 0.75 mM
Affinity for ISP enzyme [1]: relatively high affinity
Ki ([1]; BAPNA substrate): 0.204 mM
Influence on ISP activity [1]: inhibitory influence
Embryos hatched after 24 hrs. [2, 8]: 5
Embryos hatched after 48 hrs. [2, 8]: 6
Embryos hatched after 24 hrs. [2, 9]: 1
Embryos hatched after 48 hrs. [2, 9]: 1
Embryo death ([2]; Expt 04, 0.5 mM, 6 embryos/drop, 24 hrs): all died
Embryos hatched after 24 hrs. ([2]; Expt 04, 0.5 mM, 6 embryos/drop, control 6): 0

Km [3]: 60 µM
Compound: CC(C)[C@H](NC(=O)[C@H](Cc1ccccc1)NC(=O)c1ccccc1)C(=O)N[C@@H](CCCN=C(N)N)C(=O)Nc1ccc([N+](=O)[O-])cc1 [BPVANA, N-Benzoyl-Phe-Val-Arg-pNA] (Bz-Phe-Val-Arg-pNA)

Compound: N=C(N)c1ccccc1 [Benzamidine hydrochloride]
Embryo death ([4]; Experiment 01, 50 mM, 12 hatched embryos): all died
Embryos outgrown after 48 hrs. ([4]; Experiment 01, 50 mM, 12 hatched embryos, control 9): 0
Embryo death ([4]; Experiment 02, 4 mM, 10 hatched embryos): all died
Embryos outgrown after 48 hrs. ([4]; Experiment 02, 4 mM, 10 hatched embryos, control 10): 0
Ki ([1]; BAPNA substrate): 44.3 mM
Influence on ISP activity [1]: inhibitory influence
Embryo death ([2]; Expt 01, 50 mM, 12 embryos/drop, 24 hrs): all died
Embryos hatched after 24 hrs. ([2]; Expt 01, 50 mM, 12 embryos/drop, control 9): 0
Embryo death ([2]; Expt 02, 20 mM, 10 embryos/drop, 24 hrs): all died
Embryos hatched after 24 hrs. ([2]; Expt 02, 20 mM, 10 embryos/drop, control 5): 0
Embryos hatched after 24 hrs. ([2]; Expt 03, 0.5 mM, 11 embryos/drop, control 5): 3
Embryos hatched after 48 hrs. ([2]; Expt 03, 0.5 mM, 11 embryos/drop, control 10): 4
Embryos hatched after 24 hrs. ([2]; Expt 03, 1 mM, 11 embryos/drop, control 5): 4
Embryos hatched after 48 hrs. ([2]; Expt 03, 1 mM, 11 embryos/drop, control 10): 7
Embryos hatched after 24 hrs. ([2]; Expt 03, 4 mM, 11 embryos/drop, control 5): 2
Embryos hatched after 48 hrs. ([2]; Expt 03, 4 mM, 11 embryos/drop, control 10): 2

Compound: CCOC(=O)c1ccc(OC(=O)CCCCCNC(=N)N)cc1 [Gabexate mesylate]
# pregnant ([5]; group 1, 11 mice, Control 1: 6 of 6): 1
# embryos ([5]; group 1, 11 mice, Control 1: 72): 2
Rate (%) of pregnancy ([5]; group 1): 2.8%
# pregnant ([5]; group 2, 6 mice, Control 2: 4 of 4): 1
# embryos ([5]; group 2, 6 mice, Control 2: 22): 3
Rate (%) of pregnancy ([5]; group 2): 13.6%
Effect on embryo implantation in vivo ([5]; injected into the uterine lumen at 2.5 dpc, compared with controls): rate of pregnancy drops to very low
Embryos outgrown after 48 hrs. ([4]; Experiment 03, 0.1 mM, 8 hatched embryos, control 5): 0
Embryos outgrown after 48 hrs. ([4]; Experiment 03, 0.5 mM, 8 hatched embryos, control 5): 1
Embryos outgrown after 48 hrs. ([4]; Experiment 04, 0.1 mM, 11 hatched embryos, control 6): 5
Embryos outgrown after 48 hrs. ([4]; Experiment 04, 0.5 mM, 11 hatched embryos, control 6): 1
Effect on in vitro embryo outgrowth ([4]; compared to controls): almost completely inhibited
Embryos outgrown after 72 hrs. ([6]; Experiment 03, 0.1 mM, 8 hatched embryos, control 7): 4
Embryos outgrown after 72 hrs. ([6]; Experiment 03, 0.5 mM, 8 hatched embryos, control 7): 2
Embryos outgrown after 72 hrs. ([6]; Experiment 04, 0.1 mM, 11 hatched embryos, control 9): 6
Embryos outgrown after 72 hrs. ([6]; Experiment 04, 0.5 mM, 11 hatched embryos, control 9): 2
IC50 [1, 7]: 1.8 mM
Affinity for ISP enzyme [1]: relatively high affinity
Ki ([1]; BAPNA substrate): 0.49 mM
Influence on ISP activity [1]: inhibitory influence
Embryo death ([2]; CD1, mouse, 24 h, 0.1 mM): all died
Embryo death ([2]; CD1, mouse, 24 h, 0.5 mM): all died
Embryo death ([2]; CD1, mouse, 24 h, 2 mM): all died
Embryos hatched after 24 hrs. ([2]; Expt 05, 0.1 mM, 6 embryos/drop, control 6): 0
Embryos hatched after 24 hrs. ([2]; Expt 05, 0.5 mM, 6 embryos/drop, control 6): 0
Embryos hatched after 24 hrs. ([2]; Expt 05, 2.0 mM, 6 embryos/drop, control 6): 0
Embryos hatched after 24 hrs. [2, 10]: 4
Embryos hatched after 48 hrs. [2, 10]: 4
Embryos hatched after 24 hrs. [2, 11]: 4
Embryos hatched after 48 hrs. [2, 11]: 4
Embryos hatched after 24 hrs. [2, 12]: 0
Embryos hatched after 48 hrs. [2, 12]: 2
Embryos hatched after 24 hrs. [2, 13]: 0
Embryos hatched after 48 hrs. [2, 13]: 2
Embryos hatched after 24 hrs. [2, 14]: 0
Embryos hatched after 48 hrs. [2, 14]: 0
Embryos hatched after 24 hrs. ([2]; Expt 08, 0.1 mM, 16 embryos/drop, control 4 of 17): 3
Embryos hatched after 48 hrs. ([2]; Expt 08, 0.1 mM, 16 embryos/drop, control 12 of 17): 3
Embryos hatched after 24 hrs. ([2]; Expt 08, 0.5 mM, 17 embryos/drop, control 4): 1
Embryos hatched after 48 hrs. ([2]; Expt 08, 0.5 mM, 17 embryos/drop, control 12): 3
Effect on in vitro embryo hatching ([2]; compared to controls): almost completely inhibited

Compound: Cc1ccc(S(=O)(=O)N[C@@H](CCCCN)C(=O)CCl)cc1.Cl [TLCK, L-1-chloro-3[4-tosyl-amido]-7-amino-2-heptanone-HCl]
IC50 [1, 7]: 8 mM
Ki ([1]; BAPNA substrate): 2.18 mM
Influence on ISP activity [1]: inhibitory influence

IC50 ([1]; BAPNA substrate, no effect up to stated concentration, read-out: IC50% (No effect up to)): > 500 mM
Compound: UPTI: rPorcine Uterine Plasmin Trypsin Inhibitor
